{"source": "paper PMC9841525", "about": "“Chemical Blockage of the Mitochondrial Rhomboid Protease PARL by Novel Ketoamide Inhibitors Reveals Its Role in PINK1/Parkin-Dependent Mitophagy” (Journal of Medicinal Chemistry, 2022)", "system": "PINK1", "assay": "PINK1 processing and stabilization, endogenous PINK1, sodium carbonate fractionation and immunoblot", "assay_type": "cell-based, human", "details": "HEK293T cells, 5 μM, 8 h", "experimental": "Inducible stable Flp-In HEK293 T-REx cells expressing PINK1 were described previously.[33] HEK293 T-REx PINK1 and HEK293T cells were grown in DMEM (Gibco) supplemented with 10% (v/v) fetal bovine serum (ThermoFisher), 1% (v/v) GlutaMAX (Gibco), 1% (v/v) sodium pyruvate (Gibco), 125 μg/mL hygromycin (Invitrogen), and 10 μg/mL blasticidin (Gibco) or DMEM supplemented with 10% (v/v) fetal bovine serum, respectively, at 37 °C in 5% (v/v) CO2. For microscopy, cells were seeded on poly-L-lysine (Sigma)-coated slides. Transient plasmid transfections were performed using 25 kDa linear polyethylenimine (Polysciences). Plasmid (100 ng) encoding HA-Parkin-IRES-GFP, mito-mCherry or Parkin-mEGFP, or 500 ng plasmid encoding PGAM5-FLAG were used per 6-well. Total transfected DNA was 2 μg/well. For siRNA transfection, 2 × 10^5 cells were seeded per 6-well and on the next day transfected with 20 nM siRNA-oligonucleotide using lipofectamine RNAiMAX (ThermoFisher). Cells were analyzed 27 h post-transfection or five days post-siRNA-transfection. HEK293 T-REx PINK1 cells were induced with 0.3 μg/mL doxycycline for 24 h before further processing. […] For quantification, ImageJ was used (http://rsb.info.nih.gov/ij/). Immunoblots shown are representative of at least three independent experiments and were evaluated using Excel and GraphPad Prism 9 (GraphPad Software, Inc.).", "note": "*1 amine or outer side, *2 acyl side, *3 side chain or, on linkers, in order; H or OH if unused. Where a SMILES comes first, the peptide text is derived from it. [ ]: non-standard residue; d: D form. The star is where a group is joined. NH(4-phenylbutyl) = c1ccc(CCCCN*)cc1; X1 = C[C@H](N[*:1])C(=O)C(=O)[*:2]", "data": [{"smiles": "CC(=O)N[C@@H](C)C(=O)N[C@H](C(=O)N[C@@H](Cc1ccccc1)C(=O)N[C@@H](CC(C)C)C(=O)N[C@@H](C)C(=O)C(=O)NCCCCc1ccccc1)C(C)C", "note": "[compound 5] (Ac-AVFL[X1]-{NH(4-phenylbutyl)})", "values": [{"measurement": "Effect on endogenous PINK1 cleavage and stabilization", "value": "endogenous PINK1 remains largely uncleaved and is stabilized in its 66 kDa form"}, {"measurement": "Effect on endogenous PINK1 cleavage and stabilization", "setting": "listed as Compound 5", "value": "inhibits PARL-catalyzed PINK1 cleavage under endogenous expression levels"}]}]}
